{"source": "patent US10617735B2", "about": "“Methods and compositions for preserving retinal ganglion cells” (Massachusetts Eye and Ear Infirmary, priority 2010, dated 2020)", "format_in_all_cases": "in vivo, mouse", "key": {"[1]": {"test_system": "retinal ganglion cells (RGCs)", "test": "NMDA retinal excitotoxicity model: TUNEL staining", "details": "NMDA injected intravitreously in combination with the compounds", "text": "(§1) Two mouse models of RGC death were utilized: optic nerve (ON) injury and N-methyl-D-aspartate (NMDA) retinal excitotoxicity. ON injury leads to RGC death as a result of primary damage to the axons, with its ensuing disruption of retrograde axonal transport (Libby et al., (2005) PLOS GENET 1:17-26) and is used as an RGC death model. In the ON injury model, mice were anesthetized and subjected to severe crush injury at 1-2 mm distance from the eyeball for 15 seconds using cross-action forceps taking special care not to interfere with the blood supply (Levkovitch-Verbin, (2004) EYE 18:1066-1074). Injured mice were randomly divided into 4 groups for treatment: vehicle group (0.5% DMSO and 0.8% cyclodextrin in PBS, n=6), ZVAD group (300 n=6), Nec-1 group (4 mM, n=6), and ZVAD plus Nec-1 group (n=6). Soon after injury, each group received an intravitreal injection (2 μl) with the respective compounds. In the NMDA retinal excitotoxicity model, NMDA (2 μl of a 0.1M stock; Sigma-Aldrich) was injected intravitreously in combination with ZVAD, Nec-1, or ZVAD plus Nec-1 and mice were separated into the aforementioned 4 groups. […]"}, "[2]": {"test_system": "retinal ganglion cells (RGCs)", "test": "NMDA retinal excitotoxicity model: Brn3b positive cells", "details": "NMDA injected intravitreously in combination with the compounds", "text": "as §1"}, "[3]": {"test_system": "Apoptosis inducing factor (AIF)", "test": "AIF immunostaining with TUNEL after ON injury (nuclear translocation)", "details": "one day after ON injury", "experimental": "Apoptosis inducing factor (AIF) is a mitochondrial flavoprotein which is involved in initiating caspase-independent apoptosis. After loss of mitochondrial membrane potential, AIF translocates into the nucleus, induces DNA fragmentation and peripheral chromatin condensation (Susin et al., (1999), Susin et al., (2000), Candé et al., (2004)). To analyze whether mitochondrial release of AIF is associated with RGC death after ON injury, immunostaining for AIF was performed together with TUNEL assay. One day after ON injury, there was a prominent nuclear translocation of AIF, which was not affected by pan-caspase inhibition (FIGS. 7A and 7B)."}, "Atg5, 7 and 12": {"test_system": "Atg5, 7 and 12", "test": "Atg5, Atg7 and Atg12 expression after ON injury (quantitative RT-PCR)", "details": "one day after ON injury; compared with vehicle treatment", "experimental": "Total RNA extraction, cDNA synthesis and PCR amplification have been performed as previously reported (Kayama et al., (2010) OPHTHALMIC RES 43:79-91). A real-time PCR assay was performed with Prism 7700 Sequence Detection System (Applied Biosystems, Foster City, Calif.). The primers are shown below in Table 1.\nFor relative comparison of each gene, the Ct value of real-time PCR data was analyzed with the ΔΔCt method and normalized to an endogenous control ([…].\nTo investigate whether autophagy influences RGC death after ON injury, expression of several genes critical for autophagosome formation including Atg5, 7 and 12 was measured by quantitative RT-PCR. […] In contrast, administration of ZVAD plus Nec-1, or Rip3 deficiency suppressed expression of Atg5, 7 and 12 transcripts (FIGS. 9A-9C)."}, "[4]": {"test_system": "retinal ganglion cell axons", "test": "Optic nerve crush model: axon regeneration (βIII-tubulin staining of longitudinal optic nerve sections)", "details": "14 days, intravitreal ZVAD 300 μM and/or Nec-1 4 mM", "experimental": "Mice were subjected to optic nerve crush surgery. Specifically, animals were anesthetized with an intraperitoneal injection of ketamine (60-80 mg/kg: Phoenix Pharmaceutical, St. Joseph, Mo.) and xylazine (10-15 mg/kg: Bayer, Shawnee Mission, K A). Animals were positioned in a stereotaxic apparatus and a 1-1.5 cm incision was made in the skin above the right orbit. Under microscopic illumination, the lachrymal glands and extraocular muscles were resected to expose 3-4 mm of the optic nerve. The epineurium was slit open along the long axis, and the nerve was crushed 2 mm behind the eye with angled jeweler's forceps (Dumont #5) for 10 seconds, avoiding injury to the ophthalmic artery. Nerve injury was verified by the appearance of a clearing at the crush site, while the vascular integrity of the retina was evaluated by fundoscopic examination. Cases in which the vascular integrity of the retina was in question were excluded from the study. […]\nAxon regeneration was assessed by obtaining longitudinal sections of the optic nerve and counting the number of axons at pre-specified distances from the injury site. […] Axons were counted manually in at least eight longitudinal sections per case at pre-specified distances from the injury site. The number of regenerating axons at various distances are determined as described previously (Leon et al., (2000) J NEUROSCI 20:4615-4626). […]"}}, "note": "Where a SMILES comes first, the peptide text is derived from it. The star is where a group is joined. Cbz = O=C(OCc1ccccc1)*; CH2F = FC*", "data": [{"compound": "COC(=O)CC(NC(=O)C(C)NC(=O)C(NC(=O)OCc1ccccc1)C(C)C)C(=O)CF", "note": "(stereo not drawn) [Z-VAD, Benzyloxycarbonyl-Val-Ala-Asp(OMe)-fluoromethylketone] (Cbz-Val-Ala-Asp(OMe)-CH2F; configuration not given here)", "values": [{"measurement": "number of TUNEL positive cells", "setting": "[1]", "result": "decreased the number of TUNEL positive cells"}, {"measurement": "reduction of Brn3b positive cells", "setting": "[2]", "result": "prevented the reduction of Brn3b positive cells"}, {"measurement": "nuclear translocation of AIF", "setting": "[3]", "result": "not affected"}, {"measurement": "Atg12 expression", "setting": "Atg5, 7 and 12", "result": "further increased"}, {"measurement": "axon regeneration (βIII-tubulin axon staining beyond injury site)", "setting": "[4]", "result": "minimal effects on axon regeneration"}]}]}
